Data reported in article PMC3835493, “Acetylshikonin, a Novel AChE Inhibitor, Inhibits Apoptosis via Upregulation of Heme Oxygenase-1 Expression in SH-SY5Y Cells” (Evidence-based Complementary and Alternative Medicine : eCAM, 2013).
pIC50: −log10 of the molar value. Where two headings read alike, the source gives them in different places.

Key:
[1] = target: T1, human recombinant AChE (Homo sapiens, UniProt P22303); test: AChE inhibition, Ellman assay; assay type: biochemical; conditions: 37°C
T1 construct: made in house
T1 sequence (P22303 32-614): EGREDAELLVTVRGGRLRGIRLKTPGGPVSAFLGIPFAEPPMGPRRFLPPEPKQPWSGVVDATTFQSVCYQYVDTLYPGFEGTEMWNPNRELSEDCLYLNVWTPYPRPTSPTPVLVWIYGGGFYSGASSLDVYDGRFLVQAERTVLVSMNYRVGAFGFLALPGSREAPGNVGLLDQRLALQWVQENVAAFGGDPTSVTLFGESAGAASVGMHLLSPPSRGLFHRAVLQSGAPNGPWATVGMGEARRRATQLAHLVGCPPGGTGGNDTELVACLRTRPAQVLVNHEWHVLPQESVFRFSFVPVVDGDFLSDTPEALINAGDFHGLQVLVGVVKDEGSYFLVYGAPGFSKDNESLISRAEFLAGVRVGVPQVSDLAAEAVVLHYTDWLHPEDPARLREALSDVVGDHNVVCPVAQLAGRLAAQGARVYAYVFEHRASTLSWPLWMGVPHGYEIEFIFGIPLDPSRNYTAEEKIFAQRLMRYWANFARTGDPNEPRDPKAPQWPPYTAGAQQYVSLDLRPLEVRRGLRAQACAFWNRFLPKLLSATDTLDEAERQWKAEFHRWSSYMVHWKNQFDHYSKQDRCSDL
Method: Candidate phytochemicals dissolved in DMSO were tested for AChE inhibitory activity by the Ellman assay with minor modifications. Ten μL of human recombinant AChE (prepared in-house) and 1 μL of drug were added into 190 μL of PBS buffer (100 mM, pH 7.4) and incubated in a 96-well plate at 37°C for 10 min. […] After 10 min incubation with the substrate, the optical densities were measured in a 96-well plate reader at 412 nm. The optical density was inversely proportional to the inhibitory activity. By contrast, a blank control without the tested compound was also performed in parallel; the normal hydrolytic rate of the enzyme can be represented by the blank control. Each assay was performed in triplicate.
The percentage inhibitory activities of the various compounds were calculated by comparison with the positive control and the blank control. […] Data analysis was performed with Prism software. Inhibitory effects were expressed as IC50 value calculated by regression analysis.

[2] = system: SH-SY5Y cells; test: MTT cell viability, H2O2-induced cell death; assay type: cell-based, human
Method: (§1) Human neuroblastoma SH-SY5Y cells were from ATCC (Manassas, VA, usa) and maintained in DMEM/F-12 containing 10% FBS and maintained at 37°C with 95% humidified air and 5% CO2. Rat adrenal medulla pheochromocytoma PC12 cells were from ATCC (Manassas, VA, USA) and maintained in DMEM containing 10% FBS at 37°C with 95% humidified air and 5% CO2.
(§2) MTT colorimetric assay was performed to determine the cell viability. Cells were seeded in 96-well plates at a density of 5 × 10^3 cells/well and treated with test chemicals at desired concentration at 37°C for 12 hours. Subsequently, cells were stimulated with H2O2 (500 μM) for 4 hours. After the exposure period, the cells were incubated with 20 μL MTT (5 mg/mL) for 4 h. The cells were eluted with DMSO and quantified with a spectrophotometer (Ultramark Microplate Reader, Bio-Rad) at a wavelength of 590 nm.

[3] = system: PC12 cells; test: MTT cell viability, H2O2-induced cell death; assay type: cell-based, rat
Method: as §1, §2

[4] = system: SH-SY5Y cells; test: Cytotoxicity test by MTT without H2O2; assay type: cell-based, human; conditions: 10 μM, 12 h, no H2O2
Method: as §2
(§3) Figure 1 Potential AChE inhibitors of natural products attenuated H2O2-induced cell death in both SH-SY5Y and PC12 cells. SH-SY5Y (a) or PC12 (b) cells were cultured with desired concentration of H2O2 for 4 hours; the cell viability was detected by MTT. Data shown are means ± SEM of results from independent experiments in triplicate. *P < 0.05 compared with control cells. SH-SY5Y (c) or PC12 (d) cells were incubated with different potential AChE inhibitors (10 μM) for 12 hours and then stimulated with H2O2 (500 μM) for 4 hours, and the viability was detected by MTT. […] For cytotoxicity test, SH-SY5Y (e) or PC12 (f) cells were incubated with different potential AChE inhibitors (10 μM) for 12 hours, and the viability was detected by MTT. […]

[5] = system: PC12 cells; test: Cytotoxicity test by MTT without H2O2; assay type: cell-based, rat; conditions: 10 μM, 12 h, no H2O2
Method: as §2, §3

[6] = system: SH-SY5Y cells; test: Nuclear staining with Hoechst 33258 (apoptosis); assay type: cell-based, human; conditions: pretreatment 12 h, H2O2 4 h
Method: (§4) SH-SY5Y cells and PC12 cells (1 × 10^4 cells/well) in 24-well plates were preincubated with or without test chemicals for 12 hours and subsequently stimulated with H2O2 for the 4 hours. The nuclear morphology of apoptotic cells was measured by Hoechst 33258 nuclear staining according to the manufacturer's instructions. The nuclear morphological change was observed under a fluorescence microscope (Nikon Live Cell Imaging System Ti-E, Japan) using excitation/emission of 360/460 nm.

[7] = system: PC12 cells; test: Nuclear staining with Hoechst 33258 (apoptosis); assay type: cell-based, rat; conditions: pretreatment 12 h, H2O2 4 h
Method: as §4

[8] = system: SH-SY5Y cells; test: Intracellular ROS measurement (H2DCF-DA); assay type: cell-based, human; conditions: acetylshikonin 5 and 10 μM 12 h, H2O2 500 μM 2 h
Method: (§5) The cells were treated with desired concentration of acetylshikonin for 12 hours, and then the cells were stained with H2DCF-DA (10 μM) for 30 min. After 30 min staining, cells were stimulated with H2O2 (500 μM) for 2 h, and the fluorescence intensity of H2DCF-DA was measured/detected by a fluorescence spectrophotometer (M1000, TECAN, Austria GmbH, Austria) using excitation/emission of 485/530 nm and a fluorescence microscope (Nikon Live Cell Imaging System Ti-E, Japan) using excitation/emission of 490/530 nm, respectively. Fluorescence intensity of each group was normalized to the control group.

[9] = system: PC12 cells; test: Intracellular ROS measurement (H2DCF-DA); assay type: cell-based, rat; conditions: acetylshikonin 5 and 10 μM 12 h, H2O2 500 μM 2 h
Method: as §5

[10] = system: SH-SY5Y cells; test: Mitochondrial membrane potential (Rhodamine 123); assay type: cell-based, human; conditions: pretreatment 12 h, H2O2 500 μM 2 h
Method: as §5, with “were” for “were stained with H2DCF-DA (10 μM) for 30 min. After 30 min staining, cells were”, “2 h. Rhodamine 123 (2 μM) was added to cells after” for “2 h, and”, “the treatment for 30 min at 37°C. Fluorescence” for “the fluorescence”, “of Rhodamine 123” for “of H2DCF-DA”, “Japan) and” for “Japan)”

[11] = system: PC12 cells; test: Mitochondrial membrane potential (Rhodamine 123); assay type: cell-based, rat; conditions: pretreatment 12 h, H2O2 500 μM 2 h
Method: as §5, with “were” for “were stained with H2DCF-DA (10 μM) for 30 min. After 30 min staining, cells were”, “2 h. Rhodamine 123 (2 μM) was added to cells after” for “2 h, and”, “the treatment for 30 min at 37°C. Fluorescence” for “the fluorescence”, “of Rhodamine 123” for “of H2DCF-DA”, “Japan) and” for “Japan)”

[12] = system: Bcl-2, Bax, p53, caspase-3 in SH-SY5Y cells; test: Western blot of apoptosis-related proteins; assay type: cell-based, human; conditions: pretreatment 12 h, H2O2 500 μM 1 h
Method: (§6) Proteins in the total cell lysate were separated by 10% SDS polyacrylamide gel electrophoresis and electrotransferred to a polyvinylidene difluoride membrane (Immobilon-P membrane; Millipore, Bedford, MA, USA). After the blot was blocked in a solution of 5% bovine serum albumin, membrane was incubated overnight with primary antibodies against Bcl-2, Bax, Caspase-3, p53, HO-1, or beta-actin followed by incubation with horseradish peroxidase-conjugated secondary antibodies for 1 h. Specific bands were detected with ECL-plus western blotting detection reagent (GE Healthcare Bio-Sciences) and photographed with FujiFilm LAS-3000 (Fujifilm, Tokyo, Japan).

[13] = system: Bcl-2, Bax, p53, caspase-3 in PC12 cells; test: Western blot of apoptosis-related proteins; assay type: cell-based, rat; conditions: pretreatment 12 h, H2O2 500 μM 1 h
Method: as §6

[14] = system: HO-1 in SH-SY5Y cells; test: Western blot of HO-1 expression; assay type: cell-based, human; conditions: acetylshikonin 12 h, H2O2 500 μM 1 h
Method: as §6

[15] = system: HO-1 in PC12 cells; test: Western blot of HO-1 expression; assay type: cell-based, rat; conditions: acetylshikonin 12 h, H2O2 500 μM 1 h
Method: as §6

[16] = IC50, human recombinant AChE, pH 7.4
[17] = acetylshikonin 1–10 μM 12 h, then H2O2 500 μM 4 h
[18] = test chemical 10 μM 12 h, then H2O2 500 μM 4 h
[19] = human recombinant AChE, pH 7.4, read-out: IC50
[20] = ZnPP 10 μM 2 h, acetylshikonin 12 h, H2O2 500 μM 4 h, MTT

## CC(=O)O[C@H](CC=C(C)C)C1=CC(=O)c2c(O)ccc(O)c2C1=O [Acetylshikonin]
[1]; [16]
  pIC50: 4.46
[2]; [17]
  H2O2-induced cell death and morphology change, dose dependence: dose dependently attenuated
[2]; [18]
  H2O2-induced cell death (cell viability, MTT): highest viability
[3]; [17]
  H2O2-induced cell death and morphology change, dose dependence: dose dependently attenuated
[3]; [18]
  H2O2-induced cell death (cell viability, MTT): highest viability
[4]
  Cytotoxicity in MTT assay: not observed
[5]
  Cytotoxicity in MTT assay: not observed
[6]
  H2O2-induced cell shrinkage and nuclear condensation (Hoechst 33258): dramatically ameliorated
[7]
  H2O2-induced cell shrinkage and nuclear condensation (Hoechst 33258): dramatically ameliorated
[8]
  H2O2-induced ROS generation: statistically declined
[9]
  H2O2-induced ROS generation: statistically declined
[10]
  H2O2-induced mitochondrial membrane potential loss: rescued by acetylshikonin in a dose-dependent manner
[11]
  H2O2-induced mitochondrial membrane potential loss: rescued by acetylshikonin in a dose-dependent manner
[12]
  Bax and p53 expression: decreased
  Bcl-2 expression: increased expression
  H2O2-induced decreased caspase-3 and increased cleaved caspase-3: rescued by acetylshikonin in a dose-dependent manner
[13]
  Bax and p53 expression: decreased
  Bcl-2 expression: increased expression
  H2O2-induced decreased caspase-3 and increased cleaved caspase-3: rescued by acetylshikonin in a dose-dependent manner
[14]
  HO-1 expression: increased
[15]
  HO-1 expression: no impact

## CC(C)=CCc1c2occc2c(O)c2ccc(=O)oc12 [Alloisoimperatorin]
[1]; [19]
  pIC50: 4.68

## O=C1c2cccc(O)c2C(=O)c2c(O)cc(CO)cc21 [Aloe-emodin]
[1]; [16]
  pIC50: 4.57

## Cc1cc(O)c2c(c1)C(=O)c1cccc(O)c1C2=O [Chrysophanol]
[1]; [16]
  pIC50: 4.12

## Cc1cc(O)c2c(c1)C(=O)c1cc(O)cc(O)c1C2=O [Emodin]
[1]; [16]
  pIC50: 4.66

## CC(C)=CCOc1c2occc2cc2ccc(=O)oc12 [Imperatorin]
[1]; human recombinant AChE, pH 7.4
  IC50: Undetected

## CC(C)=CCC(OC(=O)CC(C)C)C1=CC(=O)c2c(O)ccc(O)c2C1=O (stereo not shown) [Isovalerylshikonin]
[1]; [19]
  pIC50: 4.08

## COc1c2ccoc2c(OCC=C(C)C)c2oc(=O)ccc12 [Phellopterin]
[1]; [19]
  pIC50: 3.75

## O=C(O)c1cc(O)c2c(c1)C(=O)c1cccc(O)c1C2=O [Rhein]
[1]; [16]
  pIC50: 3.63

## CC(C)=CC[C@@H](O)C1=CC(=O)c2c(O)ccc(O)c2C1=O [Shikonin]
[1]; [16]
  pIC50: 4.14

## COc1c2occc2cc2ccc(=O)oc12 [Xanthotoxin]
[1]; human recombinant AChE, pH 7.4
  pIC50: 3.88

## C=CC1=C(C)c2cc3[n-]c(cc4[n-]c(cc5nc(cc1n2)C(C)=C5C=C)c(C)c4CCC(=O)O)c(CCC(=O)O)c3C.[Zn+2] [ZnPP, zinc protoporphyrin IX, reference compound]
[2]; [20]
  Effect of ZnPP on protective effects of acetylshikonin on H2O2-induced cell death: reversed the protective effects
[3]; [20]
  Effect of ZnPP on protective effects of acetylshikonin on H2O2-induced cell death: not observed

## CC(C)=CCC(OC(=O)C=C(C)C)C1=CC(=O)c2c(O)ccc(O)c2C1=O (stereo not drawn) [β,β-Dimethylacrylshikonin]
[1]; human recombinant AChE, pH 7.4
  pIC50: 4.20
